Assay results as given in US8486891B2, “Nasal calcitonin formulations containing chlorobutanol” (Par Pharmaceutical, Inc., priority 2003, dated 2013).

Legend:
[1] = ingredient as supplied (EP grade); cited from earlier work
[2] = test system: rat trachea; assay: Inhibition of ciliary beating frequency of rat trachea; type: cell-based
Excerpt: The prior art teaches away from the use of chlorobutanol stating that at 0.6% concentration, the chlorobutanol caused more than 50% inhibition of ciliary beating frequency of rat trachea.

[3] = healthy volunteers, decongestant nasal spray containing the preservative; cited from earlier work
[4] = test system: respiratory mucosal tissue; conditions: in vitro exposure; Berg et al. 1994; cited from earlier work
[5] = test system: frog palate; conditions: ex vivo frog palate; Braga et al. 1992; cited from earlier work

Salmon Calcitonin [Salmon Calcitonin, EP]
Potency [1]: Potency of 6236 IU/mg

CC(C)(O)C(Cl)(Cl)Cl [chlorobutanol]
effect on ciliary beating frequency of rat trachea ([2]; chlorobutanol concentration less than 0.4%): greatly reduced | effect on ciliary beating frequency of rat trachea ([2]; chlorobutanol concentration of around 0.25%): totally eliminated

benzalkonium chloride
effect on rhinitis [3]: aggravate rhinitis | morphological effect on respiratory mucosal tissue [4]: severe morphological alterations | mucocilary transport velocity [5]: significant slowing
